Where a name gives a salt, the structure may show the parent alone.
Assay: In house cohesion test of pastes (mass loss after sintering and immersion in water)
Type: physicochemical
Settings: for Effect of plasticiser in liquid carrier on paste cohesion: PLGA 95:5/PEG400/CS pellets, FIG. 4
Experimental: Pastes were prepared by mixing particles with a liquid carrier and their setting was assessed using an ‘in house’ cohesion test. Briefly, following paste sintering, aluminium foils containing the pastes were placed onto a sieve mesh and immersed to a depth of around 1 cm of water for 1 minute (FIG. 1). Afterwards, they were carefully removed from the sieve. The samples were freeze-dried and weighed so that mass loss could be estimated.
A 355 μm sieve (Endecotts, BS410/1986) was placed on to its dedicated collection tray. • 2×100 mg of particles were manually mixed in an aluminium foil (4×4 cm circa) with 70 μl of each liquid carrier. • The obtained pastes were left to sinter in a sealed plastic bag with humidity >90% for different times. • Following sintering at RT or 37° C. in a humidified environment (>90% RH), the aluminium foils containing the pastes were placed onto the sieve mesh. • A constant, gentle, circa 7 ml/sec flow of water (Millipore, Direct-Q® 3 UV) was applied to the sieve mesh, until the samples became immersed in circa 1 cm of water. • Following immersion, samples were allowed to remain immersed in the head of water for circa 1 minute. • After the 1 minute, the sieve was removed from the sieve tray and the aluminium foils containing the samples were carefully removed from the sieve. • The samples with the aluminium foil were freeze-dried and weighed so that mass loss could be estimated. • The sieve tray (which was still filled with water) was visually inspected for the presence of particles that may have been lost from the samples during.

Row | Effect of plasticiser in liquid carrier on paste cohesion | Importance of plasticiser in liquid carrier for paste setting (PLGA50:50/PEG400/SIM pellets, sintering 10 to 60 min at 37° C., FIG. 6) | SMILES
1 | behave in a similar way |  | CC(=O)OCC(COC(C)=O)OC(C)=O [TA, triacetin]
2 | behave in a similar way |  | CCOC(=O)CC(O)(CC(=O)OCC)C(=O)OCC [TEC, TriEthyl Citrate]
3 |  | not important for paste setting | CCO [ethanol, Ethanol]

Source: US20210290818A1, “SCAFFOLDING MATERIAL, METHODS AND USES” (LOCATE THERAPEUTICS LIMITED, priority 2016, published 2021)
